Measurements reported in patent US20240360411A1, “METHODS AND COMPOSITIONS FOR INDUCING FETAL HEMOGLOBIN, MODULATING ERYTHROID CELL LINEAGES, AND PERTURBING MEGAKARYOCYTE LINEAGES” (FLAGSHIP PIONEERING INNOVATIONS VI, LLC, priority 2021, published 2024).

What was measured:
C57Bl/6J mice = assay: Carboplatin induced thrombocytopenia model (CIT), CBC and bone marrow flow cytometry; assay type: in vivo, mouse
Text: Chemotherapy induced thrombocytopenia (CIT) was a major disease burden in cancer patients undergoing chemotherapy. CIT increases the risk of bleeding resulting in delay of chemotherapy and/or reduction in relative dose intensity (RDI), which has a major impact in overall outcomes to cancer treatment. Currently, there were no approved treatments besides platelet transfusions in severe CIT cases. Thrombopoietin (TPO) mimetics, such romiplostim, were being investigated as a possible new treatment to address CIT. Based on the ability to modulate megakaryocyte progenitors in vitro and healthy animals, murine models that replicate CIT were developed (Table 19.) To this end, the following chemotherapeutic compounds known to induced myelosuppression and thrombocytopenia in mouse and humans were selected to develop CIT models:
Carboplatin a cisplatin analog commonly used in the clinic to treat a diverse type of malignant tumors. Carboplatin works by cross-linking to DNA resulting in DNA damage and decreased tumor burden. In addition, carboplatin also leads to bone marrow myelosuppression including transient thrombocytopenia in both human and mice.
Healthy C57Bl/6J mice were treated with a single dose of carboplatin via intraperitoneal injection (60 or 100 mg/kg) (FIG. 16A). Complete blood count (CBC), specifically changes in platelet number were measured using a blood analyzer (Heska HT5) at baseline Day 0 (baseline), Day 9, Day 16 and Day 21. In addition, bone marrowwas harvested at 24 hrs, 48 hrs, 9 days and 21 days post-carboplatin injection to characterize changes in the hematopoietic stem cells compartment, and changes in megakaryocyte compartment. […] Analysis of the bone marrow hematopoietic compartments was performed using flow cytometry as described in Example 14.

sickle cell patient = sickle cell patient treated with hydroxyurea; Mundee et al.; cited from earlier work
[1] = single intraperitoneal dose, 60 or 100 mg/kg, day post-injection

N.N.O=C([O-])C1(C(=O)[O-])CCC1.[Pt+2] [carboplatin]
bone marrow hematopoietic compartments (early Mkps, mature megakaryocytes) (C57Bl/6J mice; flow cytometry 24 hrs, 48 hrs, 9 days, 21 days post-carboplatin injection, FIG. 17A, 17B): dynamic loss and recovery of distinct populations | tolerability (C57Bl/6J mice; single intraperitoneal dose, 60 or 100 mg/kg): tolerated the treatment | blood platelets (change in platelet number) (C57Bl/6J mice; single intraperitoneal dose, 60 or 100 mg/kg, FIG. 16B): decrease of blood platelets in a dose dependent manner | full recovery of platelet number (C57Bl/6J mice; [1]): ≤ 21 days | nadir of blood platelets (C57Bl/6J mice; [1]): 9 days

NC(=O)NO [hydroxyurea]
mean % F+ cells (sickle cell patient): 54.1%±8.5% | mean % HbF (sickle cell patient): 15.8%±2.0%
